“Also recorded” adds a separate entry of the source.
Test system: patients with type 2 diabetes at high vascular risk
Test: Cardiovascular and Renal Outcomes Trial: linagliptin 5 mg once daily vs placebo on top of standard of care
Format: in vivo
Conditions: for Albuminuria progression: patients, %: of 2162 analysed; for Hospitalisation for heart failure vs placebo, in words: subgroup without insulin use at baseline
Description: The effect of linagliptin on cardiovascular risk in adult patients with type 2 diabetes mellitus and with increased CV risk evidenced by a history of established macrovascular or renal disease (e.g. as defined herein) was evaluated in a multi-center, multi-national, randomized, double-blind parallel group trial. The trial compared the risk of experiencing a major adverse cardiovascular event (MACE) between linagliptin and placebo when these were added to and used concomitantly with standard of care treatments for diabetes (HbA1c), cardiovascular risk factors and renal disease.
The primary endpoint in this trial was the time to first occurrence of three point (3P) MACE. A major adverse cardiac event was defined as a cardiovascular death or a nonfatal myocardial infarction (MI) or a nonfatal stroke. The statistical analysis plan tested for non-inferiority for the occurrence of (3P) MACE. […] The secondary endpoint was a renal composite, defined as renal death or sustained end stage renal disease or sustained decrease of 40% or more in eGFR.
Type 2 diabetes patient with insufficient glycemic control (naïve or pre-treated with any antidiabetic background medication, excluding treatment with GLP-1 receptor agonists, DPP-4inhibitors or SGLT-2 inhibitors if ≥consecutive 7 days, e.g. having HbA1c 6.5-10%), and high risk of cardiovascular events, e.g. defined by: • albuminuria (micro or macro) and previous macrovascular disease: e.g. defined according to Condition I as indicated below; • and/or • impaired renal function: e.g. as defined according to Condition II as indicated below;
Background and aims: People with type 2 diabetes (T2D) are at increased risk for hospitalization for heart failure (hHF), particularly in the setting of concomitant cardiovascular (CV) and/or kidney disease. […] Here we present analyses of HF outcomes with the DPP-4 inhibitor linagliptin (LINA) vs. placebo (PBO) from a Cardiovascular and Renal Outcomes Trial assessing cardiovascular safety and renal microvascular outcome in patients with type 2 diabetes at high vascular risk, a large CV outcomes trial that enrolled participants with T2D at high risk for hHF due to concomitant CV and/or chronic kidney disease. Materials and methods: People with T2D and concomitant CV and/or kidney disease were randomized to receive LINA 5 mg, or PBO once daily (1:1), on top of standard of care. All hHF, CV outcomes, and deaths were centrally adjudicated, with individual and composite HF-related outcomes analyses comparing LINA vs. placebo. Investigator-reported HF-related adverse events, whether or not confirmed by adjudication, were also analyzed. A Cox proportional hazards model adjusting for region and history of HF was used for analyses of first events. Recurrent hHF events were analyzed using a negative binomial model.
Methods: The present Cardiovascular and Renal Outcomes Trial randomized people with T2D and i) concomitant CV disease with UACR >30 mg/g or ii) prevalent CKD (i.e. GFR <45 ml/min/1.73m2 and/or UACR >200 mg/g) to receive the DPP-4 inhibitor linagliptin (5 mg) or placebo once daily in a double-blind fashion. The primary CV endpoint was 3P-MACE, with a key secondary kidney endpoint (adjudicated ESKD, renal death, or sustained ≥40% decrease in eGFR from baseline) and other renal outcomes (including albuminuria and eGFR slope) also assessed. Subgroups were assessed by baseline kidney function (eGFR ≥/<45 ml/min/1.73m2and eGFR ≥/<30, 45 or 60 ml/min/1.73m2).
Adults with type 2 diabetes, HbA1c 6.5-10.0% inclusive, and high CV risk were eligible for inclusion. […] Macrovascular disease eligibility criteria was based on documented and confirmed history of myocardial infarction, coronary artery disease, stroke, carotid artery disease, or peripheral artery disease. Participants with end-stage kidney disease (ESKD), defined as eGFR <15 or requiring maintenance dialysis, were excluded.

CC#CCn1c(N2CCC[C@@H](N)C2)nc2c1c(=O)n(Cc1nc(C)c3ccccc3n1)c(=O)n2C [Linagliptin, 1-[(4-methyl-quinazolin-2-yl)methyl]-3-methyl-7-(2-butyn-1-yl)-8-(3-(R)-amino-piperidin-1-yl)-xanthine]
Hospitalization for unstable angina: rate/1000 patient-years (in vivo): 5.5 per 1000 patient years | Hypersensitivity reactions, all AEs: % (in vivo): 3.3% | Hypersensitivity reactions, all AEs: N (in vivo): 114 | Investigator reported HF events: HR vs placebo (in vivo): 0.87 | Investigator reported HF events: events (in vivo): 243 | Investigator reported hypoglycemia: % (in vivo): 29.7% | Investigator reported hypoglycemia: N (in vivo): 1036 | New initiation of loop diuretics or hHF: HR vs placebo (in vivo): 0.95 | New initiation of loop diuretics or hHF: participants (in vivo): 330/2530 | New introduction of loop diuretics: HR vs placebo (in vivo): 0.94 | New introduction of loop diuretics: participants (in vivo): 318/2530 | Non-cardiovascular death: % (in vivo): (3.2) % | Non-cardiovascular death: hazard ratio vs placebo (in vivo): 1.02 | Non-cardiovascular death: no. (in vivo): 112 | Non-cardiovascular death: rate/1000 patient-years (in vivo): 14.3 per 1000 patient years | Non-fatal myocardial infarction: % (in vivo): (4.5) % | Non-fatal myocardial infarction: hazard ratio vs placebo (in vivo): 1.15 | Non-fatal myocardial infarction: no. (in vivo): 156 | Non-fatal myocardial infarction: rate/1000 patient-years (in vivo): 20.6 per 1000 patient years | Non-fatal stroke: % (in vivo): (1.9) % | Non-fatal stroke: hazard ratio vs placebo (in vivo): 0.88 | Non-fatal stroke: no. (in vivo): 65 | Non-fatal stroke: rate/1000 patient-years (in vivo): 8.5 per 1000 patient years | Pancreatic cancer: % (in vivo): 0.3% | Pancreatic cancer: N (in vivo): 11 | Participants with ≥2 hHF events: % (in vivo): 1.7% | Participants with ≥2 hHF events: n (in vivo): 60 | Pemphigoid (bullous pemphigoid): % (in vivo): 0.2% | Pemphigoid (bullous pemphigoid): N (in vivo): 7 | Reduction of risk of albuminuria progression compared to placebo (in vivo): about 14% | Reduction of risk of microvascular renal and/or eye complications compared to placebo (in vivo): about 14% | Renal death, sustained ESKD, or sustained decrease of 50% or more in eGFR from baseline: hazard ratio vs placebo (in vivo): 0.98 | Risk of HHF regardless of baseline renal function, in words (in vivo): did not affect the risk of HHF | Risk of albuminuria progression vs placebo, in words (in vivo): significantly reduced | Risk of hospitalization for heart failure, in words (in vivo): no increase in the risk | Serious adverse events: % (in vivo): 37.0% | Serious adverse events: N (in vivo): 1293 | Skin lesions: % (in vivo): 0.1% | Skin lesions: N (in vivo): 5 | Stent thrombosis, hospitalisation for peripheral vascularisation, retinopathy-related endpoints vs placebo, in words (in vivo): no significant difference | Sustained decrease of 30% or more in eGFR with eGFR <60; and renal death, sustained ESRD or CV death vs placebo, in words (in vivo): no significant difference | Time to first event of investigator reported events or adjudicated hHF: HR vs placebo (in vivo): 0.92 | Time to first event of investigator reported events or adjudicated hHF: events (in vivo): 305 | eGFR changes over time and transition in CKD status vs placebo, in words (in vivo): no clinically meaningful differences | eGFR slope (MDRD): between-group difference vs placebo, estimate ± SE (in vivo): −0.175 ± 0.151 /year | eGFR-slope, in words (in vivo): unaffected | hHF or all-cause mortality: HR vs placebo (in vivo): 0.95 | hHF or all-cause mortality: events (in vivo): 499 | 4-point MACE: % (in vivo, listed as linagliptin): 13.3% | Acute pancreatitis, adjudication confirmed: N (in vivo, listed as linagliptin): 9 | Albuminuria progression: hazard ratio (95% CI) vs placebo (in vivo, listed as linagliptin): 0.86 | Albuminuria progression: rate/100 patient-years (in vivo, listed as linagliptin): 21.4 per 100 patient-years | Hospitalization for heart failure or cardiovascular death: % (in vivo, listed as linagliptin): 11.6% | Skin lesions: % (in vivo, listed as linagliptin): 0.2% | Risk of major adverse cardiovascular events (3P-MACE) vs placebo, in words (median follow up 2.2 years): non-inferior to placebo | Risk of renal outcome events vs placebo, in words (median follow up 2.2 years): did not increase the risk | Risk of major adverse cardiovascular events (3P-MACE) vs placebo, in words (median follow up 2.2 years, listed as linagliptin): did not increase the risk | Any adverse events: N (n = 3494): 2697 | eGFR slope (MDRD) from baseline to last value on treatment/year, estimate ± SE (n = 6740 both groups): −2.459 ± 0.106 /year | hHF events (first+recurrent): rate ratio vs placebo (negative binomial model): 0.94 | Albuminuria progression: patients, %: (35.3) % | Albuminuria progression: patients, % (listed as linagliptin): 35.3% | Contributing to composite microvascular outcome: patients with albuminuria progression, % (of n = 3494): 21.3% | Albuminuria progression: number of patients (patients analysed 2162 (n = 4291 both groups)): 763 | Rate of hypoglycemia compared to placebo, in words (patients taking sulfonylurea at baseline): numerically higher rate | Incidence of severe hypoglycaemia (patients using insulin at baseline): 4.4% | Incidence of severe hypoglycaemia (patients using sulfonylurea at baseline): 2.0% | Time to onset of intensification or initiation of insulin vs placebo, in words (patients without insulin use at baseline): later | Cumulative number of hHF events (first+recurrent) (recurrent events analysis): 326 | Patients who achieved glycaemic control at the end of the study irrespective of antidiabetic medication: % (study end): 29.0% | Patients who achieved glycaemic control at the end of the study irrespective of antidiabetic medication: n (study end): 1012 | Proportion achieving glycaemic control at study end without additional or increased antidiabetic medication vs placebo, in words (study end visit): significantly greater | Risk of hHF vs placebo, in words (subgroup baseline SBP <140 mmHg): statistically lower risk of hHF | Risk of hHF vs placebo, in words (subgroup enrolled from North America or Asia, listed as LINA): nominally significant reductions | Risk of hHF vs placebo, in words (subgroup enrolled from North America or Asia, listed as linagliptin): Statistically significant lower risk of hHF | Hospitalisation for heart failure vs placebo, in words (listed as LINA): nominally significant reduction | Hospitalisation for heart failure vs placebo, in words (listed as linagliptin): favouring linagliptin in patients without insulin; also recorded: Statistically significant lower risk of hHF | 4P-MACE, CV death, all-cause mortality, and MI-related endpoints vs placebo, in words (tertiary endpoints): no significant differences | Fatal and non-fatal stroke and transient ischaemic attack vs placebo, in words (tertiary endpoints): no significant differences | hHF; CV death or hHF; all-cause mortality or hHF; heart failure AEs vs placebo, in words (tertiary endpoints): no significant differences | Severe hypoglycemic event (requiring assistance): % (treated population): 3.0% | Severe hypoglycemic event (requiring assistance): N (treated population): 106 | UACR vs placebo, in words (up to Week 132): statistically significant and clinically meaningful reduction | UACR: difference at week 36 (gMean ratio of relative change for linagliptin versus placebo) (week 36): 0.87 | UACR: difference at week 84 (gMean ratio of relative change for linagliptin versus placebo) (week 84): 0.88

Source: patent US20240398817A1, “CARDIO- AND RENOSAFE ANTIDIABETIC THERAPY” (priority 2018, published 2024)
